Test results taken from US9061012B2, “Uses of DGAT1 inhibitors” (Novartis AG, priority 2010, dated 2015).

Columns and labels:
STZ rats = assay: Plasma triglycerides after Intralipid in a model of severe hypertriglyceridemia (STZ, high fat diet); assay type: in vivo, rat (male Sprague Dawley); details: for Plasma TG at 2 hrs / Plasma TG at 4 hrs: 10 mpk oral gavage 30 min before Intralipid 10 ml/kg; for Plasma TG at 2 hrs: 2 hrs post-Intralipid; for Plasma TG at 2 hrs / Plasma TG at 4 hrs / Pre-dose TG: mean ± SEM; for Plasma TG at 4 hrs / Plasma TGs at 4 hrs compared between groups: 4 hrs post-Intralipid; for Pre-dose TG: baseline immediately before dosing, 6 h fasted, group later given 10 mpk oral, n=10/group
Method: Male Sprague Dawley (SD) rats at 12 wks of age were studied. Orlistat (04139-100MG) and Streptozotocin (S0130-1G) were purchased from Sigma (St. Louis, Mo.).
Compounds were suspended in vehicle (0.5% methyl cellulose with 0.1% Tween-80) to achieve a dosing volume of 4 ml/kg and dosing concentration of 10 mpk for both compound 1 and orlistat (Sigma, St. Louis, Mo.).
Two weeks into consuming a 60% high fat diet, animals were treated with a 40 mpk dose of streptozotocin (STZ given intravenously (iv) in 10 mM sodium citrate in normal saline, pH=4.5). Nine days later, animals were assigned to three experimental groups (vehicle, compound 1 at 10 mpk, or orlistat at 10 mpk) on the basis of 6 hr fasted TG concentrations (n=10/group). On the morning of the study, 14 days after animals were placed in experimental groups, animals were fasted for 6 hours, after which studies commenced at 1100 hr with baseline blood collected by tail nick into ethylenediaminetetraacetic acid-lined tubes (Sarstedt, Nümbrecht, Germany).
The baseline blood sample (80 μl) was collected immediately prior to administering compounds. Rats were orally gavaged with drug or vehicle (4 ml/kg) beginning at 1100 hrs. Thirty minutes later, Intralipid was orally gavaged at 10 ml/kg to all rats, representing t=0 hr. At 2 and 4 hrs post-Intralipid, tail nick blood samples were taken to assess plasma TGs.
Blood samples remained on ice following collection for no longer than 30 min prior to centrifugation (10 min, 4° C., 1000 g) and resulting plasma was aliquoted for plasma TG analysis.
Plasma TGs (triglycerides) (corrected for glycerol) were compared on an absolute basis, as a percent change from baseline (% TGs), and as area above baseline over 0-4 hours (AABtg0-4-h) using the Trapezoidal rule. Percent change from baseline was calculated as follows: % change from baseline=([TGs] at 2 or 4 hrs)−([TGs] at baseline)*100 [TGs] at baseline Statistical Analyses
Data are reported as means±SEM. One-way ANOVA (analysis of variance) assessed between-group differences when any comparisons that were not time-dependent were made (body weight, pre-study plasma TGs, AABtg0-4-h). To assess that the Intralipid bolus produced a significant increase in plasma TGs in the vehicle group, a repeated measures (RM) one-way ANOVA was used with Tukey's posthoc test applied to compare plasma parameter means at 2 and 4 hrs vs. pre-treatment concentrations. RM two-way ANOVA was used to assess the significance of the treatment-by-time interaction for plasma parameters (TGs and % TGs) followed by Bonferroni's t-test to compare differences among the groups. Outliers were determined using the Grubb's Test for Outliers. Significance was set at P≦0.05.

Type V patients = assay: Open-label clinical study, fasting and postprandial (MTT) triglycerides in Type V patients; assay type: in vivo, human
Method: (§1) An open-label, multiple-dose, parallel group clinical study is carried out to assess the safety, tolerability, pharmacokinetics and pharmacodynamics of compound 1 in twelve patients with chylomicronemia (six with FCS and six with Type V).
(§2) The safety and tolerability of multiple doses of Compound 1 in patients with chylomicronemia (both FCS and Type V), and the effect of oral Compound 1 on fasting and postprandial plasma triglycerides in the study population are determined using the following method.
(§3) The clinical study is an open-label, out-patient parallel group study to assess the safety, tolerability, pharmacokinetics and pharmacodynamics of Compound 1 administered once daily for 21 days in patients with chylomicronemia (both FCS and Type V). Six patients of each phenotype are enrolled and treated with Compound 1 at 20 mg per day for 21 days. Following a screening period of up to 90 days, eligible patients undergo a 7-day baseline period, a 21-day treatment period, a 14-day follow-up period after last treatment day and a study completion evaluation.
(§4) The enrolling criteria for Type V patients is a screening baseline of greater than or equal to 1000 mg/dL fasting triglycerides (TG), and a documented history of heterozygous lipoprotein lipase deficiency. The enrolling criteria for familial chylomicronemia syndrome (FCS) patients is a screening baseline of greater than or equal to 1000 mg/dL fasting triglycerides, and a documented history of homozygous lipoprotein lipase deficiency.
(§5) Patients are seen at a screening visit, and, if found to meet enrollment criteria, are enrolled in the study. At this time they are given instructions to adhere to a very low fat diet (<15 g/day) during the duration of the study, as is the standard of care for this population. Patients are also provided with three days' worth of standardized very low fat meals that are consumed for the three days prior to baseline evaluation (Day—4, Day—3, & Day—2)
(§6) Patients arrive at the study site on Day—1 early morning after an overnight fast for a meal tolerance test (MTT) to evaluate baseline postprandial triglyceride (TG) response. The MTT is a liquid meal of approximately 700 kcal, being 13% fat, 65% carbohydrates and 22% protein. Before the MTT, and at hourly time points through 9 hours, blood samples are taken for triglyceride and other metabolic measurements. Patients are discharged after completing this assessment and return to the study site next morning (Day 1) for a blood collection approximately 24 hours post meal, before the first dose of the study drug (Compound 1 tablets) is administered.
(§7) On the morning of Day 1, patients receive the first dose of Compound 1 at the clinic site. The drug supply for remainder of the 21-day treatment period is provided to the patients, who are instructed to take the drug orally once daily approximately one hour before breakfast for 21 days. Patients are also instructed to continue adherance to a very low fat diet. Patients are then released to home.
(§8) Patients report to the study site once weekly during the treatment period for safety and pharmacokinetics assessment, drug accountability and reviewing the meal plan and food diary. Additionally, the site staff contacts patients by phone, at least once between the clinic visits to check patients' wellbeing and monitor compliance with drug administration and low-fat meals instructions.
(§9) Patients are given pre-prepared very low-fat meals again that are consumed on Day 18, 19 & 20. Patients return to the study site on Day 21 early morning after an overnight fast for a second test meal (MTT) and frequent blood samples collection to evaluate postprandial TG response. Following the MTT and associated Day 21 assessments, patients are discharged to home. They return on the morning of Day 22 for a 24 h blood sample for triglycerides.

[1] = tested on: patients with chylomicronemia (both FCS and Type V); assay: Open-label clinical study, safety and tolerability and overall triglyceride effect in patients with chylomicronemia (FCS and Type V); assay type: in vivo
Method: as §1, §2, §3
The enrolling criteria for Type V patients is a screening baseline of greater than or equal to 1000 mg/dL fasting triglycerides (TG), and a documented history of heterozygous lipoprotein lipase deficiency. […]

Triton rat = assay: Plasma triglycerides after Intralipid and Triton WR-1339 in a model of impaired triglyceride clearance; assay type: in vivo, rat (male Sprague Dawley); details: for Plasma TG at 90 min: 90 min after Triton WR-1339 100 mg/kg i.v.; for Plasma TG at 90 min / Plasma TG at 120 min / Pre-Triton TG: compound 1 at 10 mg/kg by gavage, mean ± SEM; for Plasma TG at 120 min: 120 min after Triton WR-1339 100 mg/kg i.v.; for Pre-Triton TG: before Triton WR-1339, Intralipid 10 mL/kg 30 min later
Method: Male Sprague Dawley rats were studied at 9 and 10 weeks of age and were overnight fasted the night prior to study. The compound treated groups received a suspension of compound 1 at 10 mg/kg administered in 0.5% methyl cellulose with 0.1% Tween-80 at […]. Vehicle treated groups were dosed in a volume-matched manner with 0.5% methyl cellulose with 0.1% Tween-80. Vehicle and compounds were made up in a single batch the day before the start of each study. Orlistat was administered as a suspension in 0.5% methyl cellulose with 0.1% Tween-80 at 4 mL/kg. Intralipid was used as a high fat meal. Triton WR-1339 (10% weight: weight) was dissolved in normal saline and dosed at 100 mg/kg (i.v.) at a volume of 1 mL/kg. A baseline blood sample was collected by tail nick into ethylenediaminetetraacetic acid-lined tubes (Sarstedt, Nümbrecht, Germany) immediately prior to administering compounds (between 0830 and 0900 hrs). Rats were gavaged with drug or vehicle (4 mL/kg) beginning at 0830 hrs. Thirty minutes later, Intralipid was gavaged at 10 mL/kg to all rats, representing t=−30 min. Again, thirty minutes later, representing time=0 min, all rats were dosed via tail vein with Triton WR-1339 (100 mg/kg and 1 mL/kg) in normal saline. Blood samples were taken at −30 minutes (immediately prior to Intralipid/water dosing), −15 minutes, 0 minutes (immediately prior to Triton WR-1339 administration), as well as at 30, 60, 90, 120, and 240 minutes following administration of Triton WR-1339. Blood samples remained on ice following collection for no longer than 30 min prior to centrifugation. Following centrifugation (10 min, 4° C., 1000×g), plasma was aliquoted for plasma TG analysis. Data are reported as means±SEM. Repeated measures two-way ANOVA was used to assess the significance of the treatment by time interaction in plasma TGs followed by Tukey's post-hoc test to compare differences among the groups. Significance was set at P<0.05 and represented as asterisks in FIG. 3.

FCS (Type I) patients = assay: Open-label clinical study, fasting and postprandial (MTT) triglycerides in FCS patients; assay type: in vivo, human
Method: as §1, §2, §3, §4, §5, §6, §7, §8, §9

[2] = n = 6, 20 mg per day oral for 21 days, MTT
[3] = Type I (FCS) patients, n = 6, 20 mg per day oral for 21 days, MTT
[4] = Type I (FCS) patients, n = 6, MTT before treatment

With O=C([O-])C[C@H]1CC[C@H](c2ccc(-c3ccc(Nc4ccc(C(F)(F)F)nc4)cn3)cc2)CC1.[Na+] [Compound 1, trans-4-[4-[5-[[6-(trifluoromethyl)-3-pyridinyl]amino]-2-pyridinyl]phenyl]cyclohexane acetic acid, sodium salt] the “Plasma TG at 2 hrs” value (STZ rats) was 494.5 ± 54.2 mg/dL, the “Plasma TG at 4 hrs” value (STZ rats) was 461.5 ± 52.5 mg/dL and the “Plasma TGs at 4 hrs compared between groups” value (STZ rats; 10 mpk oral) was “did not differ”. The “Plasma TGs at 2 hrs compared to vehicle and orlistat groups” value (STZ rats; 10 mpk oral, P≦0.001) was “significantly lower”, the “Pre-dose TG” value (STZ rats) was 346.1 ± 49.6 mg/dL and the “Blunting an increase in plasma triglycerides” value (STZ rats; model of severe hypertriglyceridemia) was “effective”. The “Fasting triglycerides decreased by” value (Type V patients; 20 mg daily for 3 weeks) was 23.6%, the “Triglyceride levels relative to the threshold for increased pancreatitis risk (about 1000 mg/dL)” value (Type V patients; 20 mg daily for 3 weeks) was “kept well below the threshold” and the Postprandial triglycerides (Type V patients; 20 mg daily for 3 weeks, relative to fasting TG decrease) was “reduced by a similar magnitude”. The “Fasting TG, Mean Δ from Baseline” value (Type V patients; n = 6, 20 mg per day oral for 21 days) was −23.6%, the “Postprandial Peak TG, Mean Δ from Baseline” value (Type V patients; [2]) was −25.8% and the “Postprandial TG AUC0-9, Mean Δ from Baseline” value (Type V patients; [2]) was −27.3%. The “Postprandial Peak TG, Mean Baseline” value (Type V patients; n = 6, MTT before treatment) was 835.2 mg/dL, the “Postprandial TG AUC0-9, Mean Baseline” value (Type V patients; n = 6, MTT before treatment) was 6873.0 mg·h/dL and the “Fasting TG, Mean Baseline” value (Type V patients; n = 6, before treatment) was 745.8 mg/dL. The Safety and tolerability ([1]; all 12 patients, 20 mg daily for 3 weeks) was “safe and well tolerated”, the “Triglyceride levels after 3 weeks of treatment” value ([1]; both groups of patients (FCS and Type V), 20 mg daily) was “decreased” and the “Plasma TG at 90 min” value (Triton rat) was 290.2 ± 89.7 mg/dL. For the same compound, the “Plasma TG at 120 min” value (Triton rat) was 479.3 ± 123.4 mg/dL, the “Pre-Triton TG” value (Triton rat) was 35.6 ± 5.6 mg/dL and the “Rate of absorption of triglycerides arising from a high fat meal” value (Triton rat; conclusion from Triton rat data) was “suppresses”. The “Plasma TG appearance compared to vehicle and orlistat treatments” value (Triton rat; following Intralipid bolus, at 90 and 120 minutes post Triton WR-1339, P≦0.05) was “significantly decreased”, the “Fasting TG, Mean Δ from Baseline” value (FCS (Type I) patients; Type I (FCS) patients, n = 6, 20 mg per day oral for 21 days) was −38.4% and the “Postprandial Peak TG, Mean Δ from Baseline” value (FCS (Type I) patients; [3]) was −36.4%. For the same compound, the “Postprandial TG AUC0-9, Mean Δ from Baseline” value (FCS (Type I) patients; [3]) was −35.4%, the “Postprandial Peak TG, Mean Baseline” value (FCS (Type I) patients; [4]) was 1913.1 mg/dL and the “Postprandial TG AUC0-9, Mean Baseline” value (FCS (Type I) patients; [4]) was 15044.5 mg·h/dL. The “Fasting TG, Mean Baseline” value (FCS (Type I) patients; Type I (FCS) patients, n = 6, before treatment) was 1968.0 mg/dL, the “Fasting triglycerides decreased by” value (FCS (Type I) patients; patients with FCS, 20 mg daily for 3 weeks) was 38.4% and the Postprandial triglycerides (FCS (Type I) patients; patients with FCS, 20 mg daily for 3 weeks, relative to fasting TG decrease) was “reduced by a similar magnitude”. For the same compound, the “Triglyceride levels decreased by” value (FCS (Type I) patients; patients with FCS, to near the threshold for increased pancreatitis risk (about 1000 mg/dL)) was “about 40%”.
In the case of CCCCCCCCCCC[C@@H](C[C@@H]1OC(=O)[C@H]1CCCCCC)OC(=O)[C@H](CC(C)C)NC=O [Orlistat, reference compound], the “Plasma TG at 2 hrs” value (STZ rats) is reported as 891.8 ± 97.8 mg/dL, the “Plasma TG at 4 hrs” value (STZ rats) is reported as 236.3 ± 37.9 mg/dL and the “Plasma TGs at 4 hrs compared between groups” value (STZ rats; 10 mpk oral) is reported as “lower than the other 2 groups”. The “Pre-dose TG” value (STZ rats) was 288.4 ± 27.4 mg/dL, the “Plasma TG at 90 min” value (Triton rat) was 747.3 ± 203.7 mg/dL and the “Plasma TG at 120 min” value (Triton rat) was 984.9 ± 251.7 mg/dL. For the same compound, the “Pre-Triton TG” value (Triton rat) was 114.5 ± 13.0 mg/dL.
